Bridge positions count the residues as written; N and C are the ends. Ends that are not written are not given here.
What was measured:
swine colonic microbiota = assay: PMA-qPCR counts of bacterial groups in PolyFermS swine colon fermentation model; format: cell-based; conditions: for impact on total bacterial counts: PolyFermS, with Salmonella Newport 10^7 cfu/mL, 0.4 mM MccJ25 or 4 mM reuterin, 24 h
Description: (§1) The in vitro fermentation model of the swine colon has been described elsewhere in detail ([Tanner et al., 2014]) and in our previous study ([Naimi et al., 2020]). […] Seeded with 30% (v/v) swine fecal beads, the inoculum reactor IR (useful volume of 250 mL) was fed fresh nutrient medium continuously (Figure 1A). Effluent from IR was used to continuously inoculate at 10% (v/v) the test reactors TR1 and TR2, which also received 90% (v/v) fresh medium (Figure 1B). The feed rate of the three reactors controlled using peristaltic pumps (model 120U, Watson-Marlow, Falmouth, Cornwall, United Kingdom) was set at 27 mL/h for a mean retention time in IR and TRs of 9 h. For the first 3 days, the IR was run in repeated-batch mode, the medium replaced every 12 h with fresh medium, in order to colonize fecal bead. Continuous feeding was then started, followed by 12 days of stabilization before connection to TR1 and TR2. Continuous culture was split into three periods: stabilization, treatment and wash. Conditions were kept constant in IR to assess the temporal stability of the system without any manipulation during the entire fermentation, while TR1 and TR2 were subjected to treatments for various periods. Between each period, culture was flushed from TR1 and TR2 as described previously ([Tanner et al., 2014]). TR1 and TR2 were subjected to a washing procedure with 10% chlorine solution to decontaminate and remove any historical effect of the previous periods. Briefly, TR1 and TR2 were disconnected from the IR, the entire medium was removed and reactors were filled with 10% freshly prepared chlorine solution. After stirring for 1 h, the reactors were rinsed twice by adding sterile distilled water and stirring for another hour. After complete removal of water and chlorine residues, reactors were filled with sterile fresh nutritive medium and reconnected to the IR. After each flush, they were stabilized for 3 days until a steady state was reached before starting the next treatment period.
The inhibitory activity of MccJ25, reuterin and rifampicin against Salmonella Newport and the major bacterial species constituting the swine colonic microbiota were quantified using propidium-monoazide-coupled quantitative polymerase chain reaction (PMA-qPCR). Samples collected from the reactors were treated with propidium monoazide (PMA dye, Biotium, Inc., Hayward, CA, United States) for viable bacteria counts as described previously ([Fernandez et al., 2016]). […]
The quantitative PCR (qPCR) was performed in MicroAmp® Fast Optical 96-Well Reaction Plates with Barcode (Life Technologies Inc., Burlington, ON, Canada) on an ABI 7500 Real-Time PCR System (Applied Biosystems, Streetsville, ON, Canada). Each sample was analyzed in duplicate. […]

[1] = test system: porcine intestinal microbiota; assay: 16S rRNA gene amplicon sequencing of microbiota in PolyFermS model (alpha/beta diversity, taxonomy); format: cell-based, swine; conditions: for change in microbial composition (PCoA of Bray Curtis similarity matrix, PERMANOVA) compared to Salmonella alone: 24 h fermentation, two replicates F1 and F2, 0.4 mM MccJ25, 4 mM reuterin, p value 0.001 for significant differences; for change in microbial composition (PCoA of Bray Curtis similarity matrix, PERMANOVA) compared to Salmonella alone / change in alpha diversity (Shannon index and number of observed ASVs): 0.6 mM rifampicin; for change in alpha diversity (Shannon index and number of observed ASVs): rifampicin effect from the 8-h time point until end of fermentation, 0.4 mM MccJ25, 4 mM reuterin
Description: as §1
The microbial community at different time points along the fermentation was analyzed by Illumina next-generation 16S rRNA gene amplicon sequencing. Taxonomic analysis were assessed by sequencing the bacterial 16S rRNA gene in the V3-V4 region using the amplification primers 341F (5′-CCTACGGGNGGCWGCAG-3′) and 805R (5′-[…]-3′) adapted to incorporate the transposon-based Illumina Nextera adapters (Illumina, United States) and a sample barcode sequence allowing multiplexed sequencing ([García-López et al., 2020]). High-throughput sequencing was performed at the Institute for Integrative Systems Biology (Université Laval, Québec, Canada) on a MiSeq platform using 2 × 300 bp paired-end sequencing (Illumina, United States). The raw sequence data have been submitted to European Nucleotide Archive (ENA) database with accession number PRJEB52762.
Raw data were processed using the DADA2 R package (version 1.14.1) ([Callahan et al., 2016]) to obtain exact amplicon sequence variants (ASVs) using the metabaRpipe R package^1. Briefly, forward and reverse reads were truncated after 260 and 250 nucleotides, respectively. After truncation, reads with expected error rates higher than three and four for forward and reverse reads, respectively, were removed. After filtering, error rate learning, ASV inference and denoising, reads were merged with a minimum overlap of 15 nucleotides. Chimeric sequences were identified and removed. Taxonomy was assigned to ASVs using DADA2 against SILVA database (v138.1) ([Glöckner et al., 2017]). Phylogenetic relatedness of ASVs, alpha diversity (Observed and Shannon indexes) and beta diversity analyses (Bray Curtis similarity matrix) were performed using the phyloseq R package ([McMurdie and Holmes, 2013]) and the DivComAnalyses packages^2.
The rarefied ASV table was used to calculate richness and diversity indices.

[2] = test system: swine colonic microbiota metabolome; assay: LC-MS metabolomic profiling of swine colonic microbiota in PolyFermS model; format: cell-based; conditions: for impact on the metabolome of the swine colonic microbiota (LC-MS profiles, PCA): PolyFermS pellet extracts, 0.4 mM MccJ25, 4 mM reuterin, 0.6 mM rifampicin, MccJ25 effect decreased with time, rifampicin effect increased
Description: as §1
Resulting networks were visualized using Cytoscape 3.7.1.

Salmonella Newport = conditions: PolyFermS continuous culture simulating swine proximal colon; ref Naimi et al., 2020; cited from earlier work
Excerpt: Microcin J25 (MccJ25) is one of the most studied Gram-negative bacteriocins. This 21-amino-acid posttranslationally modified peptide produced by E. coli is a potent inhibitor of Enterobacteriaceae including Salmonella ([Rintoul et al., 2001]). It is a typical lasso peptide ([Arnison et al., 2013]; [Wang and Zhang, 2018]) which is characterized by an 8-residue macrolactam ring that is closed by an isopeptide bond between the N-terminus and the side chain carboxylate of a glutamate at position 8. The ring is threaded by the resulting tail that is locked inside by two bulky amino acid side chains ... || Enumerating specific bacterial groups by PMA-qPCR provided first a global information on the composition of the swine gut microbial community. Rifampicin induced important changes in Bacteroides, Lactobacillaceae and total 16S rRNA gene contents at the end of the colonic fermentation while no major effects were observed when MccJ25 and reuterin were added separately. […] Taxonomically, rifampici ... || Since MccJ25 appears to be a potent inhibitor of Salmonella Newport in the PolyFermS continuous culture model of the porcine proximal colonic microbiome as shown previously ([Naimi et al., 2020]), it should be considered as a potential alternative to antibiotics in pork production. […] This is important since it has been shown that changes in gut microbiota composition are associated with various metabolic disorders and likely subject the ...

E. coli = conditions: reuterin 1.3 mM, without affecting other bacterial populations; ref Cleusix et al., 2008; cited from earlier work
Description: Enumerating specific bacterial groups by PMA-qPCR provided first a global information on the composition of the swine gut microbial community. Rifampicin induced important changes in Bacteroides, Lactobacillaceae and total 16S rRNA gene contents at the end of the colonic fermentation while no major effects were observed when MccJ25 and reuterin were added separately. […] Taxonomically, rifampici ...

[3] = cited from earlier work
Excerpt: (§2) Microcin J25 (MccJ25) is one of the most studied Gram-negative bacteriocins. This 21-amino-acid posttranslationally modified peptide produced by E. coli is a potent inhibitor of Enterobacteriaceae including Salmonella ([Rintoul et al., 2001]). It is a typical lasso peptide ([Arnison et al., 2013]; [Wang and Zhang, 2018]) which is characterized by an 8-residue macrolactam ring that is closed by an isopeptide bond between the N-terminus and the side chain carboxylate of a glutamate at position 8. The ring is threaded by the resulting tail that is locked inside by two bulky amino acid side chains ...

weaned pigs = conditions: MccJ25 purity above 99%; ref Yu et al., 2017; cited from earlier work
Excerpt: as §2

E. coli infection = conditions: highly purified MccJ25; ref Yu et al., 2022; cited from earlier work
Excerpt: (§3) The widespread use of antibiotics in livestock production has led to the emergence of antibiotic-multiresistant bacteria, which can infect humans via the food chain. The use of antibiotics as growth promoters has been banned outright in several industrialized countries, which has increased the urgency of the search for alternatives. Researchers began decades ago to propose bacteriocins as substitutes. In addition to their natural origin, being mostly indigenous to the gut microbiota, and their potent inhibitory activity, bacteriocins are most often endowed with a narrow spectrum of antibacteri ...

[4] = test system: clinically relevant veterinary multidrug-resistant strains; conditions: highly purified MccJ25; ref Yu et al., 2022; cited from earlier work
Excerpt: as §3

[5] = PolyFermS TR1/TR2, Salmonella Newport 10^7 cfu/mL + 0.6 mM rifampicin, after 12 h, followed by regrowth

| Compound | impact on total bacterial counts (swine colonic microbiota) | change in microbial composition (PCoA of Bray Curtis similarity matrix, PERMANOVA) compared to Salmonella alone [1] | change in alpha diversity (Shannon index and number of observed ASVs) [1] | impact on the metabolome of the swine colonic microbiota (LC-MS profiles, PCA) [2] | inhibitory activity against Salmonella Newport (Salmonella Newport) | effect on E. coli population (E. coli) | reduction of Bacteroides counts (swine colonic microbiota; [5]) | reduction of total cell counts (swine colonic microbiota; [5]) | relative abundance of Escherichia-Shigella (ASV002) ([1]; 0.6 mM rifampicin + Salmonella Newport, at 12 h, enriched from the 8-h time point) | taxonomic change at the phylum level ([1]; 0.6 mM rifampicin + Salmonella Newport, from the 6-h time point, both reactors F1 and F2) | change in amino acid levels in microbiota metabolome ([2]; PolyFermS, 0.6 mM rifampicin + Salmonella Newport, extracted ion chromatograms) | metabolomics profile after 24 h treatment ([2]; PolyFermS, 0.4 mM MccJ25 + Salmonella Newport, 24 h) | stability to denaturing conditions, high temperatures, extreme pHs and certain proteases [3] | effect of supplemented diet on weaned pigs (weaned pigs) | effect on inflammation (E. coli infection) | bactericidal activity in vitro [4] |
| --- | --- | --- | --- | --- | --- | --- | --- | --- | --- | --- | --- | --- | --- | --- | --- | --- |
| O=CCCO [reuterin, 3-hydroxypropanal] | did not induce significant impact | No significant changes | did not induce a remarkable changes | no impact | did not inhibit Salmonella Newport | significantly and selectively decrease E. coli |  |  |  |  |  |  |  |  |  |  |
| CO[C@H]1/C=C/O[C@@]2(C)Oc3c(C)c(O)c4c(O)c(c(/C=N/N5CCN(C)CC5)c(O)c4c3C2=O)NC(=O)/C(C)=C\C=C\[C@H](C)[C@H](O)[C@@H](C)[C@@H](O)[C@@H](C)[C@H](OC(C)=O)[C@@H]1C [rifampicin, Rifampicin] |  | significant differences | significant decrease | significant effects | inhibits Salmonella growth |  | approximately 1 log | approximately 1 log | more than 44% | increase of the relative abundance of Proteobacteria and Firmicutes phyla | increase in the levels of Leu/Ile, Phe, Tyr and Trp amino acids |  |  |  |  |  |
| Microcin J25 (GGAGHVPEYFVGIGTPISFYG; lactam N-8; also: lasso macrolactam, places not given here; UniProt Q9X2V7 38-58, looked up) [MccJ25, 21-amino-acid posttranslationally modified lasso peptide bacteriocin produced by E. coli; 8-residue macrolactam ring closed by isopeptide bond to Glu8] | did not induce significant impact | significant differences | did not induce a remarkable changes |  | remained potent over 24 h |  |  |  |  |  |  | close to that before treatment | remarkable stability | improve growth performance, and attenuate diarrhea and systematic inflammation | decrease inflammation | efficient bactericidal activity |

Reference: PMC9383034, “Impact of microcin J25 on the porcine microbiome in a continuous culture model” (Frontiers in Microbiology, 2022)
